The values below come from patent publication US8785499B2 (priority 2009, dated 2014).

Where two headings read alike, the source gives them in different places.

The target in one test is baNadD (Bacillus anthracis, UniProt C3L5T6). The test is described as follows: biochemical. The settings on record: for inhibition at 50 µM: read-out: INHIBITION (%) B. anthracis. It counts as biochemical.
Another test addresses ecNadD (Escherichia coli (strain K12), UniProt P0A752). The test is described as follows: biochemical. It counts as biochemical. The note with it: for inhibition at 100 µM: read-out: INHIBITION (%) E. coli; for IC50: IC50 ecNadD.

baNadD, sequence (C3L5T6 whole entry, looked up): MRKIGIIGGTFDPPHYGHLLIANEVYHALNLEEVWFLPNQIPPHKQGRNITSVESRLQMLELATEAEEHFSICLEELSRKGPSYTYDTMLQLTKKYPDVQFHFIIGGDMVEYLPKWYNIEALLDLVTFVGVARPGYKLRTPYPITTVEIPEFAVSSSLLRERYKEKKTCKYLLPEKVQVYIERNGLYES

As for `Cc1cc(OCC(=O)Nc2ccc(S(N)(=O)=O)cc2)ccc1Cl` [compound 099], on baNadD, the “[…]. anthracis” value worked out at 2%. The “[…]. coli” value on ecNadD came out at 10%.
On to `O=C(CCN1C(=O)c2ccccc2C1=O)NCc1ccncc1` [compound 302], for which the “[…]. anthracis” value on baNadD came to 0%. The “[…]. coli” value at ecNadD came out at 0%.
`O=c1[nH]c2ccc(/N=C/c3cc(Cl)ccc3O)cc2[nH]1` [compound 135]: at baNadD, the “[…]. anthracis” value worked out at 10%. Besides, the “[…]. coli” value on ecNadD is 6%.
Take `Nc1c(C(=O)Nc2ccc(F)c(F)c2)sc2nc(-c3ccncc3)ccc12` [03_26]: the inhibition at 50 µM at baNadD stood at 23%. For the same compound, the inhibition at 100 µM on ecNadD came out at 7%.
In the case of `O=C(CCC(=O)Nc1ccc(Br)cc1)N/N=C/c1ccc(Br)cc1` [01_09], at baNadD, the inhibition at 50 µM worked out at 68%. In addition, the inhibition at 100 µM on ecNadD amounted to 74%.
As to `CC(=O)NS(=O)(=O)c1ccc(/N=C2\C(=O)Nc3ccccc32)cc1` [compound 300], the “[…]. anthracis” value at baNadD was 0%. Also, the “[…]. coli” value on ecNadD was 0%.
With `O=C(O)CSc1nc2ccccc2n1CC(=O)O` [compound 169], the “[…]. anthracis” value at baNadD turned out to be 0%. For the same compound, at ecNadD, the “[…]. coli” value was determined as 3%.
On the same counts, the results for `N/N=C/c1c(Cl)cccc1Cl` [compound 191] are 5% and 1%.
The matching figures for `O=C(O)CCC(=O)Nc1ccc(-c2nnc(-c3ccco3)o2)cc1` [compound 239]: 11% and 0%.
The matching figures for `COc1ccc(S(=O)(=O)Nc2ccc(C(N)=O)cc2)cc1Cl` [compound 139]: 0% and 6%.
Take `NS(=O)(=O)c1ccc(NCc2cccc(Cl)c2Cl)cc1` [compound 157]: the “[…]. anthracis” value on baNadD stood at 0%. Also, on ecNadD, the “[…]. coli” value stood at 5%.
On the same counts, the results for `NS(=O)(=O)c1ccc(N/C=C/C(=O)c2ccc(Cl)s2)cc1` [compound 021] are 79% and 24%.
On the same counts, the results for `NS(=O)(=O)c1ccc(CCNC(=S)Nc2ccc(S(N)(=O)=O)cc2)cc1` [compound 095] are 0% and 10%.
On the same counts, the results for `Nc1nc(SCC(=O)NCC2CCCO2)n[nH]1` (stereo not shown) [compound 173] are 0% and 3%.
`CC(=O)Nc1ccc(OCC(=O)Nc2ccccc2)cc1` [compound 125]: the “[…]. anthracis” value on baNadD is 0%. Moreover, on ecNadD, the “[…]. coli” value stood at 7%.
Regarding `O=C(CSc1n[nH]c(=O)[nH]c1=O)N/N=C\c1ccc(Br)cc1` [compound 189], the “[…]. anthracis” value at baNadD is recorded as 0%. In addition, the “[…]. coli” value at ecNadD is listed as 1%.
For the compound `Nc1c(C(=O)Nc2cccc(Cl)c2)sc2nc(-c3cccs3)ccc12` [03_12], the IC50 against baNadD (IC50 baNadD) amounted to 15 µM; against ecNadD it was 71 µM. Also, the inhibition at 50 µM on baNadD was found to be 89%. The inhibition at 100 µM at ecNadD amounted to 53%.
Regarding `Nc1[nH][nH]c(=O)c1/N=N/c1ccccc1F` [compound 254], on baNadD, the “[…]. anthracis” value turned out to be 0%. For the same compound, the “[…]. coli” value at ecNadD is on record as 0%.
Regarding `COc1ccc(/C(C)=N/NC(=O)CNc2cc(Br)c(C)c(Br)c2)c(OC)c1` [01_11], the IC50 at baNadD (read-out: IC50 baNadD) was 30 µM. The inhibition at 50 µM at baNadD was 86%. Further, the inhibition at 100 µM at ecNadD worked out at 70%.
With `O=C(O)c1cc([N+](=O)[O-])ccc1Sc1cccs1` [compound 005], the “[…]. anthracis” value at baNadD was found to be 44%. Further, the “[…]. coli” value on ecNadD came out at 71%.
On the same counts, the results for `O=C(N/N=C/c1ccc(Br)cc1)c1[nH]ncc1Br` [compound 256] are 0% and 0%.
As to `O=C(CCC(=O)Nc1ccc(I)cc1)N/N=C/c1cccc(Br)c1` [01_06], the inhibition at 50 µM at baNadD is 54%. The inhibition at 100 µM at ecNadD was determined as 78%.
With `O=C(NNC(=O)c1ccco1)c1cccc(I)c1` [compound 028], the “[…]. anthracis” value at baNadD is reported as 7%. For the same compound, the “[…]. coli” value on ecNadD stood at 23%.
On the same counts, the results for `O=C(O)C1CCCN(S(=O)(=O)c2cccc([N+](=O)[O-])c2)C1` (stereo not shown) [compound 227] are 0% and 0%.
`Nc1c(C(=O)Nc2ccc(F)c(F)c2)sc2nc(-c3ccc(F)cc3)ccc12` [03_24] registered an IC50 at baNadD (IC50 baNadD) of more than 200 µM. In addition, the inhibition at 50 µM on baNadD was 5%. Moreover, at ecNadD, the IC50 is more than 200 µM and the inhibition at 100 µM was 9%.
As for `O=C(CSc1nc2ccccc2[nH]1)Nc1cccc(C(=O)O)c1` [compound 248], the “[…]. anthracis” value on baNadD is 4%. Besides, the “[…]. coli” value at ecNadD was found to be 0%.
The matching figures for `Cc1ccc(S(=O)(=O)/N=C(\N)c2ccc(F)cc2)cc1` [compound 162]: 0% and 4%.
`O=C(NNC(=O)C1CC=CCC1C(=O)O)c1cccc([NH2+][O-])c1` (stereo not shown) [compound 171]: the “[…]. anthracis” value at baNadD was 24%. Besides, on ecNadD, the “[…]. coli” value came to 3%.
For the compound `O=C(O)c1cc(/N=C/c2ccc3c(c2)OCO3)ccc1O` [compound 119], the “[…]. anthracis” value on baNadD is recorded as 0%. At ecNadD, the “[…]. coli” value was 8%.
For the compound `O=C1Nc2ccccc2/C1=C/Nc1ccccc1F` [15_17], the inhibition at 50 µM on baNadD amounted to 22%. Further, the inhibition at 100 µM on ecNadD came to 11%.
For `Cc1cccc(N/C=C2\C(=O)Nc3ccccc32)c1` [15_28], the IC50 against baNadD (IC50 baNadD) was more than 200 µM. The inhibition at 50 µM on baNadD worked out at 24%. At ecNadD, the IC50 is more than 200 µM and the inhibition at 100 µM was found to be 8%.
Regarding `CCOc1cc(/C=N/O)cc(I)c1O` [compound 045], at baNadD, the “[…]. anthracis” value stood at 0%. Besides, the “[…]. coli” value at ecNadD is listed as 17%.
The matching figures for `CSc1ccccc1NC(=S)Nc1cccnc1` [compound 224]: 0% and 0%.
The matching figures for `Cc1ccc(C(=O)N/N=C/c2ccc(O)c(I)c2)cn1` [compound 147]: 12% and 5%.
On the same counts, the results for `O=C(O)c1cc(C(=O)O)c2cc(Oc3ccc4nc(C(=O)O)cc(C(=O)O)c4c3)ccc2n1` [compound 067] are 1% and 13%.
As to `O=C(O)CC(NC(=O)c1ccccc1NC(=O)c1ccco1)C(=O)O` (stereo not shown) [compound 089], at baNadD, the “[…]. anthracis” value is listed as 37%. In addition, the “[…]. coli” value at ecNadD is recorded as 10%.
On the same counts, the results for `CSc1nc2nc(N)nc(N)c2s1` [compound 251] are 0% and 0%.
On the same counts, the results for `CC(=O)c1ccc(NS(=O)(=O)c2ccc(N)cc2)cc1` [compound 283] are 0% and 0%.
The matching figures for `Nc1nc(-c2ccc(NC(=O)c3ccc(Cl)cc3)cc2)cs1` [compound 022]: 31% and 24%.
For the compound `O=C(O)c1[nH]c2ccc(Cl)cc2c1-c1ccccc1` [compound 185], at baNadD, the “[…]. anthracis” value is on record as 40%. The “[…]. coli” value at ecNadD is on record as 2%.
With `c1ccc2[nH]c(SCc3cn4ccsc4n3)nc2c1` [compound 143], the “[…]. anthracis” value at baNadD is 2%. For the same compound, at ecNadD, the “[…]. coli” value is 6%.
`CN(C)c1ccc(N/C=C2\C(=O)Nc3ccccc32)cc1` [15_03]: the inhibition at 50 µM on baNadD amounted to 27%. For the same compound, the inhibition at 100 µM on ecNadD is 19%.
On the same counts, the results for `Cc1ccc(N/C=C2\C(=O)Nc3ccccc32)c(Cl)c1` [15_19] are 14% and 11%.
For `Cc1ccc(NC(=S)NC(=O)c2ccc(F)cc2)nc1` [compound 105], the “[…]. anthracis” value at baNadD turned out to be 51%. The “[…]. coli” value on ecNadD was determined as 9%.
For the compound `O=C(O)c1cc(C(=O)O)cc(N2C(=O)c3ccc(C(=O)O)cc3C2=O)c1` [compound 134], the “[…]. anthracis” value on baNadD is recorded as 0%. Also, at ecNadD, the “[…]. coli” value is 6%.
Turning to `O=C1Nc2ccccc2/C1=C/NCc1ccccc1` [15_16], the inhibition at 50 µM at baNadD was 6%. Further, on ecNadD, the inhibition at 100 µM amounted to 11%.
As to `Cc1ccc(N/C=C2\C(=O)Nc3ccccc32)cc1` [15_29], the inhibition at 50 µM at baNadD turned out to be 38%. The inhibition at 100 µM at ecNadD was found to be 7%.
As to `CC(=O)Nc1ccc(NC(=O)CSc2nccc(O)n2)cc1` [compound 128], the “[…]. anthracis” value at baNadD amounted to 0%. In addition, the “[…]. coli” value at ecNadD is given as 7%.
Turning to `Cc1cccc(N/C=C2\C(=O)Nc3ccccc32)c1C` [15_10], at baNadD, the inhibition at 50 µM stood at 26%. Besides, at ecNadD, the inhibition at 100 µM was 13%.
Take `O=C(NCCc1nc2ccccc2[nH]1)c1cccs1` [compound 079]: the “[…]. anthracis” value on baNadD is recorded as 0%. Moreover, the “[…]. coli” value at ecNadD came to 12%.
For `Cc1ccc(CN/C=C2\C(=O)Nc3ccccc32)cc1` [15_38], the inhibition at 50 µM on baNadD came to 17%. The inhibition at 100 µM at ecNadD was found to be 3%.
Turning to `COc1ccc(S(=O)(=O)Nc2ccc(CC#N)cc2)cc1C` [compound 170], the “[…]. anthracis” value at baNadD was 0%. Further, the “[…]. coli” value on ecNadD came to 3%.
Consider `O=C1Nc2ccccc2/C1=C/Nc1ccccc1C(=O)O` [15_40], for which the inhibition at 50 µM at baNadD stood at 0%. Besides, the inhibition at 100 µM on ecNadD was determined as 1%.
`O=C(O)c1cccc(CSc2ncccn2)c1` [compound 180]: the “[…]. anthracis” value on baNadD amounted to 15%. Besides, the “[…]. coli” value at ecNadD was 3%.
The matching figures for `O=C(O)c1ccccc1C(=O)c1cccs1` [compound 156]: 22% and 5%.
The matching figures for `O=C(O)c1cc(Cl)c(Cl)cc1C(=O)Nc1ccc(O)cc1` [compound 107]: 0% and 9%.
The matching figures for `O=C(O)[C@@H]1CSC(c2ccc(Cl)cc2Cl)N1` (stereo partly shown) [compound 041]: 39% and 19%.
As for `O=C(O)c1ccc(-c2ccc(C(=O)O)c(C(=O)O)c2)cc1C(=O)O` [compound 275], the “[…]. anthracis” value on baNadD stood at 0%. Besides, the “[…]. coli” value at ecNadD turned out to be 0%.
For `Nc1c(C(=O)Nc2cc(F)ccc2F)sc2nc(-c3cccs3)ccc12` [03_01], on baNadD, the “INHIBITION (%) B. anthracis” value worked out at 100% 25. The midpoint of inhibition at baNadD (IC50 baNadD), the IC50, lay at 25 µM. For the same compound, at ecNadD, the “INHIBITION (%) E. coli” value came to 100% 25 and the IC50 is 25 µM.

As usually defined, the inhibition is the change of the read-out against control, counted positive when it falls. A word on the IC50: it is the concentration at which inhibition is half-maximal.
